In ChEMBL document CHEMBL3351731, “Synthesis and cytotoxicity evaluation of 4-amino-4-dehydroxylarctigenin derivatives in glucose-starved A549 tumor cells” (Bioorg Med Chem Lett, 2015):

How the values were obtained:
A549 [1] = experiment: Cytotoxicity against human A549 cells after 4 days under normal conditions by MTT assay; assay type: cell-based; settings: A549, 96 h
A549 [2] = experiment: Cytotoxicity against human A549 cells after 4 days under glucose-starved conditions by MTT assay; assay type: functional, cell-based; settings: A549, 96 h

COc1cc(C[C@H]2C(=O)OC[C@@H]2Cc2ccc(OC)c(OC)c2)ccc1N
IC50 (A549 [1]): > 50 µM
IC50 (A549 [2]): 2.85 µM

COc1cc(C[C@H]2C(=O)OC[C@@H]2Cc2ccc(OC)c(OC)c2)ccc1NC(=O)c1ccccc1
IC50 (A549 [1]): > 50 µM
IC50 (A549 [2]): > 50 µM

COc1cc(C[C@H]2C(=O)OC[C@@H]2Cc2ccc(OC)c(OC)c2)ccc1NC(=O)Cc1ccccc1
IC50 (A549 [1]): > 50 µM
IC50 (A549 [2]): > 50 µM

COc1cc(C[C@H]2C(=O)OC[C@@H]2Cc2ccc(OC)c(OC)c2)ccc1NC(C)=O
IC50 (A549 [1]): > 50 µM
IC50 (A549 [2]): > 50 µM

CCC(=O)Nc1ccc(C[C@H]2C(=O)OC[C@@H]2Cc2ccc(OC)c(OC)c2)cc1OC
IC50 (A549 [1]): > 50 µM
IC50 (A549 [2]): > 50 µM

COc1cc(C[C@H]2C(=O)OC[C@@H]2Cc2ccc(OC)c(OC)c2)ccc1Nc1ccccc1
IC50 (A549 [1]): > 50 µM
IC50 (A549 [2]): > 50 µM

COc1ccc(Nc2ccc(C[C@H]3C(=O)OC[C@@H]3Cc3ccc(OC)c(OC)c3)cc2OC)cc1
IC50 (A549 [1]): > 50 µM
IC50 (A549 [2]): > 50 µM

COc1cc(C[C@H]2C(=O)OC[C@@H]2Cc2ccc(OC)c(OC)c2)ccc1Nc1ccc([N+](=O)[O-])cc1
IC50 (A549 [1]): > 50 µM
IC50 (A549 [2]): 22.1 µM

COc1cc(C[C@H]2C(=O)OC[C@@H]2Cc2ccc(OC)c(OC)c2)ccc1Nc1ccc(F)cc1
IC50 (A549 [1]): > 50 µM
IC50 (A549 [2]): > 50 µM

COc1cc(C[C@H]2C(=O)OC[C@@H]2Cc2ccc(OC)c(OC)c2)ccc1NCc1ccccc1
IC50 (A549 [1]): > 50 µM
IC50 (A549 [2]): > 50 µM

COc1cccc(C[C@H]2C(=O)OC[C@@H]2Cc2ccc(OC)c(OC)c2)c1
IC50 (A549 [1]): > 50 µM
IC50 (A549 [2]): > 50 µM

COc1cc(C[C@H]2C(=O)OC[C@@H]2Cc2ccc(OC)c(OC)c2)ccc1O [ARCTIGENIN]
IC50 (A549 [1]): > 50 µM
IC50 (A549 [2]): 6.57 µM
